In US20250257060A1, “OXADIAZOLE COMPOUND, PHARMACEUTICAL COMPOSITION COMPRISING SAME, AND USE THEREOF” (SUZHOU GENHOUSE BIO CO., LTD., priority 2022, published 2025):

Legend:
[1] = tested on: acetylation level of α-tubulin in HCT116 cells; assay: Assay on acetylation level of α-tubulin, HCT116 cells; assay type: cell-based; details: Homo sapiens, HCT-116, 6 h
Procedure: A375/HCT116/HCC827 cells at a logarithmic growth phase were taken, digested with a […] (trypsin), centrifuged, counted, and plated in a 96-well plate at an appropriate cell density (30,000 cells/well) at 100 µL/well, and an appropriate amount of PBS was added around the plate for water sealing. The next day, the cells were treated with the compounds at different concentrations (starting at 100 μM, 5-fold dilution, 9 concentration gradients). After 6 h, the medium was pipetted out and the cells were washed twice with 100 μL of PBST. The cells were then immobilized in 4% paraformaldehyde, and the plate was incubated at room temperature for 20 min. The stationary liquid was discarded and the cells were washed with PBST. 150 μL of special blocking buffer (containing 1% Triton-100) was added to each well for blocking at room temperature for 2 h, and the plate was washed with PBS to remove excess blocking buffer. α-tubulin (DM1A) mouse mAb and acetyl-α-tubulin (Lys40) (D20G3) XP rabbit mAb were diluted at a 1:2000 ratio with a blocking buffer containing 0.033% Triton-100. The dilutions were added to the 96-well plate and the plate was incubated overnight at 4° C. Meanwhile, a blank control group was set. The next day, the plate was washed twice with PBST. Secondary anti-mouse IgG (H+L) (DyLight™ 680 conjugate) and anti-rabbit IgG (H+L) (DyLight™ 800 conjugate) were diluted at a 1:2000 ratio with a blocking buffer containing 0.033% Triton-100. The dilutions were added to a 96-well plate and the plate was incubated at room temperature for 2 h. The plate was washed twice with PBST and once with PBS. Fluorescence signals at 700 nm and 800 nm were detected with a Li-COR Odyssey two-color near-infrared laser imager.

[2] = Phase I metabolic stability in rat liver microsomes (RLMs); assay type: in vitro ADME, Sprague-Dawley rats; details: RLM; for Remaining rate (NCF = 60 min): buffer instead of NADPH regeneration system; for Remaining rate (T = 60 min): with NADPH; for CLint scaled at 1 µM / half-life at 1 M / microsomal CLint at 1 µM: Sprague-Dawley, rat, liver microsomes, pH 7.4; for microsomal CLint at 1 µM: read-out: CLint (mic)
Procedure: (§1) Phase I metabolic stability of the test compounds in liver microsomes of CD-1 mice (MLMs), Sprague-Dawley rats (RLMs), beagle dogs (DLMs), cynomolgus monkeys (CLMs), and humans (HLMs) was evaluated.
(§2) The animal and human liver microsomes used in the test system were purchased from Xenotech, Corning, or other qualified suppliers and stored in a freezer at a temperature below −60° C. prior to use.
(§3) The test samples and control compounds were separately incubated with animal and human liver microsomes at 37±1° C. for a period of incubation time up to 60 min. The samples were removed at the indicated time points, and the reaction was stopped with acetonitrile or other organic solvents containing an internal standard. After centrifugation, the resulting supernatants were assayed by liquid chromatography-tandem mass spectrometry (LC-MS/MS).
(§4) 73.21 g of dipotassium hydrogenphosphate trihydrate and 10.78 g of potassium dihydrogenphosphate were dissolved in 4000 mL of ultrapure water. The solution was adjusted to pH 7.40±0.10 with 10% phosphoric acid or 1 M potassium hydroxide to make a final concentration of 100 mM.
(§5) The test sample powder was prepared into a stock solution at a certain concentration with DMSO or other organic solvents, which was then further diluted with a proper organic solvent.
(§6) Microsomes of each species were diluted into a 2× working solution with a 100 mM potassium phosphate buffer. The final concentration of the microsomes in the reaction system was 0.5 mg/mL.
(§7) An appropriate amount of nicotinamide adenine dinucleotide phosphate (NADP) and isocitric acid (ISO) powder was weighed out, dissolved in a magnesium chloride solution, and shaken and mixed well. An appropriate amount of isocitrate dehydrogenase (IDH) was added, and the mixture was mixed well by gently turning upside down. The final concentrations in the reaction system were: 1 mM NADP, 1 mM magnesium chloride, 6 mM ISO, and 1 unit/mL IDH.
(§8) Incubation was performed in a 96-well plate. Eight incubation plates were prepared and designated T0, T5, T15, T30, T45, T60, Blank60, and NCF60, respectively. The first 6 plates corresponded to reaction time points of 0, 5, 15, 30, 45, and 60 min, respectively. No test sample or control compound was added to the Blank60 plate, and samples were taken after 60 min of incubation. In the NCF60 plate, incubation was performed for 60 min using the potassium phosphate buffer instead of the NADPH regeneration system solution. Three replicates were made for samples in all conditions.
(§9) The microsomes and the test sample or control compound were mixed, and then the incubation plates Blank60, T5, T15, T30, T45, and T60 except for TO and NCF60 were placed in a 37° C. water bath for pre-incubation for about 10 min. In the incubation plate TO, a stop solution was first added, followed by addition of the NADPH regeneration system working solution, and 98 μL of the potassium phosphate buffer was added to each sample well of the incubation plate NCF60 to initiate the reaction. After the pre-incubations of the incubation plates Blank60, T5, T15, T30, T45, and T60 were completed, 98 μL of the NADPH regeneration system working solution was added to each sample well to initiate the reaction. The reaction temperature was 37±1° C., the final volume of the reaction was 200 μL, and the reaction system included 0.5 mg/mL microsomes, […], 1 mM NADP, 6 mM ISO, and 1 unit/mL IDH.
(§10) At 5 min, 15 min, 30 min, 45 min, and 60 min, a cold stop solution containing an internal standard was added to the reaction plate to stop the reaction.
(§11) All the reaction plates after the reaction was stopped were shaken well and centrifuged at 3220×g at 4° C. for 20 min. After the supernatant was diluted according to a certain proportion, LC-MS/MS analysis was performed.
(§12) Sample analysis was performed by the liquid chromatography-tandem mass spectrometry (LC-MS/MS) method without standard curves and quality control samples. […]

[3] = Phase I metabolic stability in mouse liver microsomes (MLMs); assay type: in vitro ADME, CD-1 mice; details: MLM; for CLint scaled at 1 µM / half-life at 1 M / microsomal CLint at 1 M: CD-1, mouse, liver microsomes, pH 7.4; for Remaining rate (NCF = 60 min): buffer instead of NADPH regeneration system; for Remaining rate (T = 60 min): with NADPH; for microsomal CLint at 1 M: read-out: CLint (mic)
Procedure: as §1, §2, §3, §4, §5, §6, §7, §8, §9, §10, §11, §12

Compound	EC50 [1]	Remaining rate (NCF = 60 min) [2]	Remaining rate (T = 60 min) [2]	CLint scaled at 1 µM [2]	half-life at 1 M [2]	CLint scaled at 1 µM [3]	half-life at 1 M [3]	Remaining rate (NCF = 60 min) [3]	Remaining rate (T = 60 min) [3]	microsomal CLint at 1 µM [2]	microsomal CLint at 1 M [3]
O=C(N[C@H]1[C@H](N2Cc3ccc(-c4nnc(C(F)F)o4)cc3S2(=O)=O)CCCC1(F)F)C(F)F [Compound 61]	195 nM	88.24%	72.95%	19.4 mL/min/kg	2.14 h	18.6 mL/min/kg	4.9 h	83.81%	85.14%		
O=C(N[C@@H]1CCCC[C@H]1N1Cc2ccc(-c3nnc(C(F)F)o3)cc2S1(=O)=O)C(F)F [Compound 2]	140 ± 39.1 nM	93.0%	76.4%	< 17.3 mL/min/kg	> 2.42 h	< 38 mL/min/kg	> 2.42 h	99.8%	84.8%	< 9.6 µL/min/mg	< 9.6 µL/min/mg
CC(F)(F)C(=O)N[C@@H]1CCCC[C@H]1N1Cc2ccc(-c3nnc(C(F)F)o3)cc2S1(=O)=O [Compound 1]	262 nM	100.2%	68.9%	25.8 mL/min/kg	1.61 h	< 38 mL/min/kg	> 2.42 h	97.6%	79.8%	14.4 µL/min/mg	< 9.6 µL/min/mg
